Source: patent publication US9862712B2, “Benzimidazole based EGFR inhibitors” (COUNCIL OF SCIENTIFIC & INDUSTRIAL RESEARCH, priority 2014, dated 2018)

Legend:
[1] = system: U87MG Cell line (Glioblastoma cell line); test: MTT cell proliferation assay, U87MG Cell line; format: cell-based; settings: Homo sapiens, U-87 MG, U87MG, 72 h, MTT
Method: (§1) 1. Protocol Followed for Anti Cancer Activity and Results, Cell Proliferation Assays: Cell lines used herein were purchased from NCCS (National Center for Cell Sciences) Pune, India. Invitro Activity was performed in NCL (National Chemical Laboratory) Pune. Each cell line was plated in 96-well microtiter plates (10,000 cells per well), and serial dilutions of indicated compounds were added. At the end of the incubation period (72 h at 37° C.), cell viability was determined by a tetrazolium dye, MTT (3-(4,5-dimethylthiazol-2-yl)-2,5-diphenyl tetrazolium bromide) (Promega, USA). The formazan crystals were dissolved in DMSO, and the absorbance at 600 nm was recorded using an ELISA plate reader. IC50 values were calculated using nonlinear regression and defined as the concentration needed for a 50% reduction in absorbance of treated versus untreated control cells.
By using the above procedure, the compounds of the invention were tested on U87MG Cell line (glioblastoma cell line) and the results obtained are presented below in table 8, Refer FIG. 5.

MCF-7 Cell line = test: MTT cell proliferation assay, MCF-7 Cell line; format: cell-based; settings: Homo sapiens, MCF7, 72 h, MTT; for viability at 0.01 µM: MCF-7, 0.01 μM; for viability at 0.1 µM: MCF-7, 0.1 μM; for viability at 2.5 µM: MCF-7, 2.5 μM; for viability at 5 µM: MCF-7, 5 μM; for viability at 10 µM: MCF-7, 10 μM
Method: as §1
Table 4 indicates anticancer activity against A549 Cell line. The Gefitinib was used as standard and % cell Viable was measured compared to control. The procedure used was MTT assay as mentioned. […] By using the above procedure, the compounds of the invention were tested on MCF-7 Cell line and the results obtained are presented below in table 5, Refer FIG. 2.

MDA-MB-436 Cell line = test: MTT cell proliferation assay, MDA-MB-436 Cell line; format: cell-based; settings: Homo sapiens, 72 h, MTT; for viability at 0.01 µM: MDA-MB-436, 0.01 μM; for viability at 0.1 µM: MDA-MB-436, 0.1 μM; for viability at 2.5 µM: MDA-MB-436, 2.5 μM; for viability at 5 µM: MDA-MB-436, 5 μM; for viability at 10 µM: MDA-MB-436, 10 μM
Method: as §1
By using the above procedure, the compounds of the invention were tested on MDA-MB-436 Cell line and the results obtained are presented below in table 7, Refer FIG. 4.

[2] = system: A549 Cell line (Lung Cancer Cell line); test: MTT cell proliferation assay, A549 Cell line; format: cell-based, human; settings: Homo sapiens, 72 h, MTT; for viability at 0.01 µM: A549, 0.01 μM; for viability at 0.1 µM: A549, 0.1 μM; for viability at 2.5 µM: A549, 2.5 μM; for viability at 5 µM: A549, 5 μM; for viability at 10 µM: A549, 10 μM
Method: as §1
By using the above procedure, the compounds of the invention were tested on A549 Cell line and the results obtained are presented below in table 4, Refer FIG. 1.

Log P (Table 3) = format: physicochemical; settings: no method given
HOP-62 Cell line = test: MTT cell proliferation assay, HOP-62 Cell line; format: cell-based; settings: Homo sapiens, 72 h, MTT; for viability at 0.01 µM: HOP-62, 0.01 μM; for viability at 0.1 µM: HOP-62, 0.1 μM; for viability at 2.5 µM: HOP-62, 2.5 μM; for viability at 5 µM: HOP-62, 5 μM; for viability at 10 µM: HOP-62, 10 μM
Method: as §1
By using the above procedure, the compounds of the invention were tested on HOP-62 Cell line and the results obtained are presented below in table 6, Refer FIG. 3.

melting point [°C]	SMILES	viability at 0.01 µM [1] [%]	viability at 0.1 µM [1] [%]	viability at 2.5 µM [1] [%]	viability at 5 µM [1] [%]	viability at 10 µM [1] [%]	viability at 0.01 µM (MCF-7 Cell line) [%]	viability at 0.1 µM (MCF-7 Cell line) [%]	viability at 2.5 µM (MCF-7 Cell line) [%]	viability at 5 µM (MCF-7 Cell line) [%]	viability at 10 µM (MCF-7 Cell line) [%]	viability at 0.01 µM (MDA-MB-436 Cell line) [%]	viability at 0.1 µM (MDA-MB-436 Cell line) [%]	viability at 2.5 µM (MDA-MB-436 Cell line) [%]	viability at 5 µM (MDA-MB-436 Cell line) [%]	viability at 10 µM (MDA-MB-436 Cell line) [%]	viability at 0.01 µM [2] [%]	viability at 0.1 µM [2] [%]	viability at 2.5 µM [2] [%]	viability at 5 µM [2] [%]	other results
210 to 212	Nc1nc(Nc2ccc(Cl)cc2)sc1-c1nc2ccccc2[nH]1 [Molecule S4-M5, 5-(1H-benzo[d]imidazol-2-yl)-N^2-(4-chlorophenyl)thiazole-2,4-diamine]	92.8	80.6	72.9	60.9	49.9	89.8	83.6	79.9	72.9	65.9	99.8	99.6	99.9	99.9	98.9	95.8	85.6	73.9	65.9	viability at 10 µM [2]: 54.9%; logP (Log P (Table 3)): 3.99; viability at 0.01 µM (HOP-62 Cell line): 101%; viability at 0.1 µM (HOP-62 Cell line): 92.6%; viability at 2.5 µM (HOP-62 Cell line): 88.9%; viability at 5 µM (HOP-62 Cell line): 82.9%; viability at 10 µM (HOP-62 Cell line): 75.9%
218 to 220	Cc1cc(C)c(Nc2nc(N)c(-c3nc4ccccc4[nH]3)s2)c(C)c1 [Molecule S4-M6, 5-(1H-benzo[d]imidazol-2-yl)-N^2-mesitylthiazole-2,4-diamine]	91.3	82.1	70	59	42.4	112	100	101	100	100	116	112	110	105	101	92.3	85.1	72	61	viability at 10 µM [2]: 50%; logP (Log P (Table 3)): 2.11; viability at 0.01 µM (HOP-62 Cell line): 103%; viability at 0.1 µM (HOP-62 Cell line): 100%; viability at 2.5 µM (HOP-62 Cell line): 100%; viability at 5 µM (HOP-62 Cell line): 100%; viability at 10 µM (HOP-62 Cell line): 91%
